Laboratory results: US20240360194A1, “New Peptides as Potent and Selective GIP Receptor Agonists” (Sanofi, priority 2021, published 2024)
Numbered stars: 1 amine (or outer) side, 2 acyl side, 3 side chain; on linkers, the order of the positions; unused ones are H or OH. Square brackets hold non-standard residues; d marks the D form. Side chains are listed from the residue outwards. Peptide text beside a SMILES is read from it. * marks the point of attachment. C18 diacid = O=C(O)CCCCCCCCCCCCCCCCC(=O)*; γGlu = O=C(O)[C@H](CCC(=O)[*:2])N[*:1]; AEEA = NCCOCCOCC(=O)O; Aib = CC(C)(N)C(=O)O

What was measured:
[1] = biological target: T1, human GIP receptor (Homo sapiens, UniProt P48546); test: In vitro cellular cAMP assay for GIP receptor efficacy (human adipocytes); assay type: cell-based; settings: for EC50: read-out: hGIPR EC50; for Emax: read-out: hGIPR Emax
T1 construct: human adipocytes endogenously expressing the human GIP receptor; host or cells: human preadipocytes (Lonza) differentiated to adipocytes
T1 sequence (P48546 22-466): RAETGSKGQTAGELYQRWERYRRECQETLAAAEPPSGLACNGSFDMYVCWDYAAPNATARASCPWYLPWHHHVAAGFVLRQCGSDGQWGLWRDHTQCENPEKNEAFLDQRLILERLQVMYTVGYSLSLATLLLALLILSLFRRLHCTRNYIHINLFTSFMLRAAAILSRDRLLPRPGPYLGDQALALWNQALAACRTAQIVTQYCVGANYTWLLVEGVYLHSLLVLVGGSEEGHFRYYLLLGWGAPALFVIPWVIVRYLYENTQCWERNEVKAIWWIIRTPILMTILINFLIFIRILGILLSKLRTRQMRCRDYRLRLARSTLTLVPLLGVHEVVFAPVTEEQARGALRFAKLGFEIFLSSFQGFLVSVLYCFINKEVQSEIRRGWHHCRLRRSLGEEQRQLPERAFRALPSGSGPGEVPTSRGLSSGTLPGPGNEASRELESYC
Method in brief: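 cAMP is read by HTRF (665/620 nm ratio, 1 h after reagents in lysis buffer) following 30 min compound exposure at room temperature. Cells are human preadipocyte-derived adipocytes, differentiated 6 days with insulin, dexamethasone, IBMX (200 μM), PPARγ agonist and L-thyroxine, seeded 5000 per well.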

[2] = ThT assay for the assessment of physical stability (fibrillation); assay type: physicochemical; settings: ThT buffer system A: 100 mM phosphate buffer pH 7.4; 3 mg/ml, 37° C., shaking
Source text: Low physical stability of a peptide solution may lead to amyloid fibril formation, which is observed as well-ordered, thread-like macromolecular structures in the sample, which eventually may lead to gel formation. Thioflavin T (ThT) is widely used to visualize and quantify the presence of misfolded protein aggregates [Biancalana et al., Biochim. Biophys. Acta 2010, 1804(7), 1405]. […] Enzymol. 1999, 309, 274]. The time course for fibril formation often follows the characteristic shape of a sigmoidal curve and can be separated into three regions: a lag phase, a fast growth phase, and a plateau phase. The typical fibril formation process starts with the lag phase in which the amount of partially folded peptide turned into fibrils is not significant enough to be detected. The lag-time corresponds to the time the critical mass of the nucleus is built. Afterwards, a drastic elongation phase follows, and fibril concentration increases rapidly. Investigations were carried out to determine fibrillation tendencies under stress conditions by shaking at 37° C. within Fluoroskan Ascent FL or Fluoroskan Ascent. For the tests in Fluoroskan Ascent (FL), 200 μl sample were placed into a 96-well mictrotiter plate PS, flat bottom, Greiner Fluotrac No. 655076. Plates were sealed with Scotch Tape (Qiagen). Samples were stressed by continuous cycles of 10 sec shaking at 960 rpm and 50 sec rest period at 37° C. The kinetic was monitored by measuring fluorescence intensity every 20 min. Peptides were diluted in a buffer system to a final concentration of 3 mg/ml. 20 μl of a 10.1 mM ThT solution in H2O were added to 2 ml of peptide solution to receive a final concentration of 100 μM ThT. For each sample eight replicates were tested. • ThT buffer system A) 100 mM phosphate buffer pH 7.4 • ThT buffer system B) 100 mM phosphate buffer pH 7.4, 2.7 mg/ml m-cresol Lag time in hours (h) in Thioflavin T (ThT) assay of peptide samples was determined in ThT buffer system A as described in Methods.

[3] = biological target: T2, human GIP receptor (hGIPR) (Homo sapiens, UniProt P48546); test: Binding assay, displacement of [125I]GIP from HEK-293 membranes over-expressing GIPR (SPA); settings: [125I]GIP displacement
T2 sequence (P48546 22-466): T1 sequence (P48546 22-466)
Method in brief: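 Membranes from HEK-293 cells over-expressing human GIPR or GLP-1R, isolated by homogenising, sonicating and ultracentrifuging at 100000×g into HEPES/EDTA/NaCl buffer with protease inhibitors, were used for binding.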

CC[C@H](C)[C@H](NC(=O)[C@H](Cc1ccccc1)NC(=O)[C@H](CCC(=O)O)NC(=O)[C@H](CCC(=O)O)NC(=O)[C@H](CCC(N)=O)NC(=O)[C@H](Cc1c[nH]cn1)NC(=O)[C@@H](NC(=O)[C@H](CCCNC(=N)N)NC(=O)[C@H](CC(=O)O)NC(=O)[C@H](CCCCNC(=O)COCCOCCNC(=O)COCCOCCNC(=O)CC[C@H](NC(=O)CCCCCCCCCCCCCCCCC(=O)O)C(=O)O)NC(=O)C(C)(C)NC(=O)[C@@H](NC(=O)[C@H](CO)NC(=O)[C@H](CC(C)C)NC(=O)[C@H](CC(=O)O)NC(=O)[C@H](CO)NC(=O)[C@@H](NC(=O)[C@H](Cc1ccccc1)NC(=O)[C@@H](NC(=O)CNC(=O)[C@H](CCC(=O)O)NC(=O)C(C)(C)NC(=O)[C@@H](N)Cc1ccc(O)cc1)[C@@H](C)O)[C@@H](C)CC)[C@@H](C)CC)[C@@H](C)CC)C(=O)N[C@@H](CCC(N)=O)C(=O)N[C@@H](Cc1c[nH]c2ccccc12)C(=O)N[C@@H](CC(C)C)C(=O)N[C@@H](CC(C)C)C(=O)N[C@@H](C)C(=O)N[C@@H](CCC(N)=O)C(=O)NCC(=O)N1CCC[C@H]1C(=O)N[C@@H](CO)C(=O)N[C@@H](CO)C(=O)NCC(=O)N[C@@H](C)C(=O)N1CCC[C@H]1C(=O)N1CCC[C@H]1C(=O)N1CCC[C@H]1C(=O)N[C@@H](CO)C(N)=O [SEQ ID NO: 35, H2N-Y-Aib-E-G-T-F-I-S-D-L-S-I-Aib-K[{AEEA}2-gGlu-C18OH]-DRIHQEEFIQWLLAQGPSSGAPPPS-NH2] (H-Y[Aib]EGTFISDLSI[Aib]K([AEEA-AEEA-γGlu-C18 diacid])DRIHQEEFIQWLLAQGPSSGAPPPS-NH2)
EC50 [1]: 1.3 nM | Emax [1]: 120% | Increase in FI [2]: no | Lag time before increase [2]: >45 h | IC50 [3]: 0.6 nM

CC[C@H](C)[C@H](NC(=O)[C@H](CCCNC(=N)N)NC(=O)[C@H](CC(=O)O)NC(=O)[C@H](CC(C)C)NC(=O)C(C)(C)NC(=O)[C@@H](NC(=O)[C@H](CO)NC(=O)[C@H](CC(C)C)NC(=O)[C@H](CC(=O)O)NC(=O)[C@H](CO)NC(=O)[C@@H](NC(=O)[C@H](Cc1ccccc1)NC(=O)[C@@H](NC(=O)CNC(=O)[C@H](CCC(=O)O)NC(=O)C(C)(C)NC(=O)[C@@H](N)Cc1ccc(O)cc1)[C@@H](C)O)[C@@H](C)CC)[C@@H](C)CC)C(=O)N[C@@H](CCCCNC(=O)COCCOCCNC(=O)COCCOCCNC(=O)CC[C@H](NC(=O)CCCCCCCCCCCCCCCCC(=O)O)C(=O)O)C(=O)N[C@@H](CCC(N)=O)C(=O)NC(C)(C)C(=O)N[C@@H](CCC(=O)O)C(=O)N[C@@H](Cc1ccccc1)C(=O)N[C@H](C(=O)N[C@@H](CCC(=O)O)C(=O)N[C@@H](Cc1c[nH]c2ccccc12)C(=O)N[C@@H](CC(C)C)C(=O)N[C@@H](CC(C)C)C(=O)N[C@@H](C)C(=O)N[C@@H](CCC(N)=O)C(=O)NCC(=O)N1CCC[C@H]1C(=O)N[C@@H](CO)C(=O)N[C@@H](CO)C(=O)NCC(=O)N[C@@H](C)C(=O)N1CCC[C@H]1C(=O)N1CCC[C@H]1C(=O)N1CCC[C@H]1C(=O)N[C@@H](CO)C(N)=O)[C@@H](C)CC [SEQ ID NO: 37, H2N-Y-Aib-E-G-T-F-I-S-D-L-S-I-Aib-L-D-R-I-K[{AEEA}2-gGlu-C18OH]-Q-Aib-E-F-I-E-W-L-L-A-Q-G-P-S-S-G-A-P-P-P-S-NH2] (H-Y[Aib]EGTFISDLSI[Aib]LDRIK([AEEA-AEEA-γGlu-C18 diacid])Q[Aib]EFIEWLLAQGPSSGAPPPS-NH2)
EC50 [1]: 0.5 nM | Emax [1]: 113% | Increase in FI [2]: no | Lag time before increase [2]: >45 h | IC50 [3]: 0.1 nM
